Where two headings read alike, the source gives them in different places.
Experiments:
JAK1 = JAK1 (Homo sapiens (Human), UniProt P23458); experiment: LanthaScreen JAK biochemical assay (JAK1)
JAK2 = JAK2 (Homo sapiens (Human), UniProt O60674); experiment: LanthaScreen JAK biochemical assay (JAK2); conditions: for Ki: read-out: JAK 2 (pKi) (converted)
[1] = test system: IL-4 induced STAT6 phosphorylation in THP-1 human monocytic cells; experiment: Cellular JAK potency assay, THP-1
[2] = test system: IL-13 induced STAT6 phosphorylation in BEAS-2B human lung epithelial cells; experiment: AlphaScreen cellular JAK potency assay, BEAS-2B
[3] = IL-4 induced STAT6 phosphorylation, THP-1 cells
[4] = IL-13 induced STAT6 phosphorylation, BEAS-2B cells
[5] = read-out: JAK 1 (pKi) (converted)
[6] = Homo sapiens, THP-1, read-out: THP-1 IL4 pIC50 (converted)
[7] = Homo sapiens, BEAS-2B, read-out: BEAS2B pIC50 (converted)
[8] = THP-1 cells, IL-4 induced STAT6 phosphorylation
[9] = BEAS-2B cells, IL-13 induced STAT6 phosphorylation

Chain of JAK2 (O60674 whole entry): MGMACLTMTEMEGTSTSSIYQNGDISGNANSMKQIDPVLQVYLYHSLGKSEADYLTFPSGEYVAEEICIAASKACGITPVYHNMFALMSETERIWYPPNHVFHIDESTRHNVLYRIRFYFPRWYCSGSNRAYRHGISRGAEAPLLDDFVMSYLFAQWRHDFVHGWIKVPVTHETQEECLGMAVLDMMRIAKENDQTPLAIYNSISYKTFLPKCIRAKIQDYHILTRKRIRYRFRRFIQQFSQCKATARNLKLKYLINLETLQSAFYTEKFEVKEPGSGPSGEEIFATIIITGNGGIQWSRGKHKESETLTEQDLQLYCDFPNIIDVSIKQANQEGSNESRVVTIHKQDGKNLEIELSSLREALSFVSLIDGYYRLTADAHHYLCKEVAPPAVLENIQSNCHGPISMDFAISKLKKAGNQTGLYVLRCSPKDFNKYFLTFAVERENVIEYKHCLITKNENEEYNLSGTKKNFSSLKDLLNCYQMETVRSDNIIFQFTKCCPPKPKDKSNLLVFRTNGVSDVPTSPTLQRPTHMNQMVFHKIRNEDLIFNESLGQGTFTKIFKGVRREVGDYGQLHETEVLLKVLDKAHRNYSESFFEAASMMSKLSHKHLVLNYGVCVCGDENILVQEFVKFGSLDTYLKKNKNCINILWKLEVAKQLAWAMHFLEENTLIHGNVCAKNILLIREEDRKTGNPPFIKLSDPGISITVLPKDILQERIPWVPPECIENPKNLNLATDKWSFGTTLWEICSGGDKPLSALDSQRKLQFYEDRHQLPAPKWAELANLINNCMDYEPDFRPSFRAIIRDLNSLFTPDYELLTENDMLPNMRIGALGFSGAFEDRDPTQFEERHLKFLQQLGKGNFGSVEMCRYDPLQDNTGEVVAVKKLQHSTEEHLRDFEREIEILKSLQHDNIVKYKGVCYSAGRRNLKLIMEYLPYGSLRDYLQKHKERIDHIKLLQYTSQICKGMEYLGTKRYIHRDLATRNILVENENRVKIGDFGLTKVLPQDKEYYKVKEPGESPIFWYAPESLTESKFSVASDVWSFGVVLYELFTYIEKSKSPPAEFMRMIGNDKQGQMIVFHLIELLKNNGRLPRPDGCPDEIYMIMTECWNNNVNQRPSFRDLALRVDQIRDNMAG
Chain of JAK1 (P23458 whole entry): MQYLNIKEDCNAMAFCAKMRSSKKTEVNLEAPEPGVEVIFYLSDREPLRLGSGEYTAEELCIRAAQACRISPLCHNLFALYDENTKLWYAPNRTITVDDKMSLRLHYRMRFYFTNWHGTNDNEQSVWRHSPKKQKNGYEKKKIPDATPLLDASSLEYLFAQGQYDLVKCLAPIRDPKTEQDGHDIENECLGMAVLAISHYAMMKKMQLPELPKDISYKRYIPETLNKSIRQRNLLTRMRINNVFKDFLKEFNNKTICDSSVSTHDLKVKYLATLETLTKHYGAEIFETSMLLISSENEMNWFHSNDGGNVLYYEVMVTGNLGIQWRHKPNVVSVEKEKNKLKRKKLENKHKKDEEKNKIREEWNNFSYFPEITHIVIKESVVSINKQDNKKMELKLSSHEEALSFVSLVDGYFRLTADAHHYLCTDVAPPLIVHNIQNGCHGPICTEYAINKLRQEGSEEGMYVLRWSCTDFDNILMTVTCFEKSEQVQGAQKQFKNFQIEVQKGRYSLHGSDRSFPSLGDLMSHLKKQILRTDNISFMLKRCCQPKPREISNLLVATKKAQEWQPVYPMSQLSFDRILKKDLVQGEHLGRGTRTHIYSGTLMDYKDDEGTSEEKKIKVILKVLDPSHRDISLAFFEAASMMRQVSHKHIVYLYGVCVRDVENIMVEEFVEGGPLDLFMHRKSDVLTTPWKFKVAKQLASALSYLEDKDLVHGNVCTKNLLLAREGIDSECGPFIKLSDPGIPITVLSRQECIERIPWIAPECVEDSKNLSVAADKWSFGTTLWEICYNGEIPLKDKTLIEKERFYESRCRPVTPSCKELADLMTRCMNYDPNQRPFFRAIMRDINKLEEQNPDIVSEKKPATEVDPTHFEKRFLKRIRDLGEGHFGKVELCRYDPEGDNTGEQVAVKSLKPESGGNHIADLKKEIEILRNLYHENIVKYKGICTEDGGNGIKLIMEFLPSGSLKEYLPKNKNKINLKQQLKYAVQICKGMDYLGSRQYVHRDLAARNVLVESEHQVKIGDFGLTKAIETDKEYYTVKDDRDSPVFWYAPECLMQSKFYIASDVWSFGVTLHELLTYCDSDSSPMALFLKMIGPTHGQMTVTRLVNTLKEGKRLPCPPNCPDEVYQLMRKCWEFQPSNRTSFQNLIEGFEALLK

Row | Structure (SMILES) | JAK 1 (pKi) (JAK1) | JAK 2 (pKi) (JAK2) | THP-1 IL4 pIC50 [1, 3] | BEAS2B pIC50 [2, 4] | Ki (JAK1; [5]) | Ki (JAK2) | IC50 [1, 6] | IC50 [2, 7] | THP-1 IL4 pIC50 [1, 8] | BEAS2B pIC50 [2, 9] | Ki (JAK1)
1 | Cc1cc(Nc2cc3ncccc3c(N[C@@H]3C[C@H]4CC[C@@H](C3)N4C(C)CC#N)n2)n[nH]1 (stereo partly drawn) [Example 1-21] | B (B represents a pKi value between 9 and 10 (Ki between 1 nM and 0.1 nM)) | B (B represents a pKi value between 9 and 10 (Ki between 1 nM and 0.1 nM)) | A (A represents a pEC50 value≥7.5 (EC50≤32 nM)) | B (B represents a pEC50 value between 6.7 and 7.5 (EC50 between 200 nM and 32 nM)) | – | – | – | – | – | – | –
2 | Cc1cc(Nc2cc3ncccc3c(N[C@@H]3C[C@H]4CC[C@@H](C3)N4CC(C)C#N)n2)n[nH]1 (stereo partly drawn) [Example 1-23] | A (A represents a pKi value≥10 (Ki≤0.1 nM)) | A (A represents a pKi value≥10 (Ki≤0.1 nM)) | A (A represents a pEC50 value≥7.5 (EC50≤32 nM)) | A (A represents a pEC50 value≥7.5 (EC50≤32 nM)) | – | – | – | – | – | – | –
3 | Cc1cc(Nc2cc3ncccc3c(N[C@@H]3C[C@H]4CCC[C@@H](C3)N4CCC#N)n2)n[nH]1 [Example 1-31] | A (A represents a pKi value≥10 (Ki≤0.1 nM)) | A (A represents a pKi value≥10 (Ki≤0.1 nM)) | A (A represents a pEC50 value≥7.5 (EC50≤32 nM)) | A (A represents a pEC50 value≥7.5 (EC50≤32 nM)) | – | – | – | – | – | – | –
4 | Cc1cc(Nc2cc3ncccc3c(N[C@@H]3C[C@H]4CCC[C@@H](C3)N4CCF)n2)n[nH]1 [Example 1-39] | B (B represents a pKi value between 9 and 10 (Ki between 1 nM and 0.1 nM)) | B (B represents a pKi value between 9 and 10 (Ki between 1 nM and 0.1 nM)) | A (A represents a pEC50 value≥7.5 (EC50≤32 nM)) | A (A represents a pEC50 value≥7.5 (EC50≤32 nM)) | – | – | – | – | – | – | –
5 | Cc1cc(Nc2cc3ncccc3c(N[C@@H]3C[C@H]4CCC[C@@H](C3)N4CCCF)n2)n[nH]1 [Example 1-40] | B (B represents a pKi value between 9 and 10 (Ki between 1 nM and 0.1 nM)) | B (B represents a pKi value between 9 and 10 (Ki between 1 nM and 0.1 nM)) | A (A represents a pEC50 value≥7.5 (EC50≤32 nM)) | A (A represents a pEC50 value≥7.5 (EC50≤32 nM)) | – | – | – | – | – | – | –
6 | Cc1cc(Nc2cc3ncccc3c(N[C@@H]3C[C@H]4CCC[C@@H](C3)N4CC(C)C)n2)n[nH]1 [Example 1-43] | B (B represents a pKi value between 9 and 10 (Ki between 1 nM and 0.1 nM)) | B (B represents a pKi value between 9 and 10 (Ki between 1 nM and 0.1 nM)) | A (A represents a pEC50 value≥7.5 (EC50≤32 nM)) | A (A represents a pEC50 value≥7.5 (EC50≤32 nM)) | – | – | – | – | – | – | –
7 | Cc1cc(Nc2cc3ncccc3c(N[C@@H]3C[C@H]4CCC[C@@H](C3)N4CCC(F)(F)F)n2)n[nH]1 [Example 1-44] | B (B represents a pKi value between 9 and 10 (Ki between 1 nM and 0.1 nM)) | B (B represents a pKi value between 9 and 10 (Ki between 1 nM and 0.1 nM)) | A (A represents a pEC50 value≥7.5 (EC50≤32 nM)) | A (A represents a pEC50 value≥7.5 (EC50≤32 nM)) | – | – | – | – | – | – | –
8 | Cc1cc(Nc2cc3ncccc3c(N[C@@H]3C[C@H]4CC[C@@H](C3)N4S(=O)(=O)C(C)C)n2)n[nH]1 [Example 4-2] | – | – | – | – | 0.1 to 1 nM | 0.1 to 1 nM | < 31.6 nM | < 31.6 nM | – | – | –
9 | CCN1CC(S(=O)(=O)N2[C@@H]3CC[C@H]2C[C@H](Nc2nc(Nc4cc(C)[nH]n4)cc4ncccc24)C3)C1 [Example 4-10] | – | – | – | – | 0.1 to 1 nM | 0.1 to 1 nM | 31.6 to 200 nM | 31.6 to 200 nM | – | – | –
10 | Cc1cc(Nc2cc3ncccc3c(N[C@@H]3C[C@H]4CC[C@@H](C3)N4S(=O)(=O)c3cncc(F)c3)n2)n[nH]1 [Example 4-15] | – | – | – | – | 0.1 to 1 nM | 0.1 to 1 nM | < 31.6 nM | < 31.6 nM | – | – | –
11 | Cc1cc(Nc2cc3ncccc3c(N[C@@H]3C[C@H]4CCC[C@@H](C3)N4S(=O)(=O)Cc3cccnc3)n2)n[nH]1 [Example 4-26] | B (B represents a pKi value between 9 and 10 (Ki between 1 nM and 0.1 nM)) | B (B represents a pKi value between 9 and 10 (Ki between 1 nM and 0.1 nM)) | B (B represents a pEC50 value between 6.7 and 7.5 (EC50 between 200 nM and 32 nM)) | B (B represents a pEC50 value between 6.7 and 7.5 (EC50 between 200 nM and 32 nM)) | – | – | – | – | – | – | –
12 | COc1ccc2c(N[C@@H]3C[C@H]4CC[C@@H](C3)N4C(=O)C3(C(F)(F)F)CC3)nc(Nc3cc(C)[nH]n3)cc2n1 [Example 5-6] | – | – | – | – | 0.1 to 1 nM | 0.1 to 1 nM | < 31.6 nM | < 31.6 nM | – | – | –
13 | COc1ccc2c(N[C@@H]3C[C@H]4CCC[C@@H](C3)N4CCC#N)nc(Nc3cc(C)[nH]n3)cc2n1 [Example 5-10] | A (A represents a pKi value≥10 (Ki≤0.1 nM)) | A (A represents a pKi value≥10 (Ki≤0.1 nM)) | A (A represents a pEC50 value≥7.5 (EC50≤32 nM)) | A (A represents a pEC50 value≥7.5 (EC50≤32 nM)) | – | – | – | – | – | – | –
14 | Cc1cc(Nc2cc3nc(CO)ccc3c(N[C@@H]3C[C@H]4CC[C@@H](C3)N4CCCF)n2)n[nH]1 [Example 5-14] | B (B represents a pKi value between 9 and 10 (Ki between 1 nM and 0.1 nM)) | B (B represents a pKi value between 9 and 10 (Ki between 1 nM and 0.1 nM)) | B (B represents a pEC50 value between 6.7 and 7.5 (EC50 between 200 nM and 32 nM)) | B (B represents a pEC50 value between 6.7 and 7.5 (EC50 between 200 nM and 32 nM)) | – | – | – | – | – | – | –
15 | Cc1cc(Nc2cc3nc(CN4CCOCC4)ccc3c(N[C@@H]3C[C@H]4CCC[C@@H](C3)N4S(C)(=O)=O)n2)n[nH]1 [Example 5-22] | A (A represents a pKi value≥10 (Ki≤0.1 nM)) | A (A represents a pKi value≥10 (Ki≤0.1 nM)) | B (B represents a pEC50 value between 6.7 and 7.5 (EC50 between 200 nM and 32 nM)) | A (A represents a pEC50 value≥7.5 (EC50≤32 nM)) | – | – | – | – | – | – | –
16 | Cc1cnc2cc(Nc3cc(C)[nH]n3)nc(N[C@@H]3C[C@H]4CC[C@@H](C3)N4Cc3ccncc3)c2c1 [Example 6-2] | B (B represents a pKi value between 9 and 10 (Ki between 1 nM and 0.1 nM)) | B (B represents a pKi value between 9 and 10 (Ki between 1 nM and 0.1 nM)) | – | – | – | – | – | – | A (A represents a pEC50 value≥7.5 (EC50≤32 nM)) | B (B represents a pEC50 value between 6.7 and 7.5 (EC50 between 200 nM and 32 nM)) | –
17 | COc1cnc2cc(Nc3cc(C)[nH]n3)nc(N[C@@H]3C[C@H]4CC[C@@H](C3)N4CCC(F)(F)F)c2c1 [Example 6-15] | B (B represents a pKi value between 9 and 10 (Ki between 1 nM and 0.1 nM)) | B (B represents a pKi value between 9 and 10 (Ki between 1 nM and 0.1 nM)) | – | – | – | – | – | – | A (A represents a pEC50 value≥7.5 (EC50≤32 nM)) | A (A represents a pEC50 value≥7.5 (EC50≤32 nM)) | –
18 | COc1cnc2cc(Nc3cc(C)[nH]n3)nc(N[C@@H]3C[C@H]4CC[C@@H](C3)N4Cc3ccncc3)c2c1 [Example 6-24] | B (B represents a pKi value between 9 and 10 (Ki between 1 nM and 0.1 nM)) | B (B represents a pKi value between 9 and 10 (Ki between 1 nM and 0.1 nM)) | – | – | – | – | – | – | B (B represents a pEC50 value between 6.7 and 7.5 (EC50 between 200 nM and 32 nM)) | B (B represents a pEC50 value between 6.7 and 7.5 (EC50 between 200 nM and 32 nM)) | –
19 | COc1cnc2cc(Nc3cc(C)[nH]n3)nc(N[C@@H]3C[C@H]4CCC[C@@H](C3)N4Cc3ccncc3)c2c1 [Example 6-28] | B (B represents a pKi value between 9 and 10 (Ki between 1 nM and 0.1 nM)) | B (B represents a pKi value between 9 and 10 (Ki between 1 nM and 0.1 nM)) | – | – | – | – | – | – | A (A represents a pEC50 value≥7.5 (EC50≤32 nM)) | A (A represents a pEC50 value≥7.5 (EC50≤32 nM)) | –
20 | CCS(=O)(=O)N1[C@@H]2CC[C@H]1C[C@H](Nc1nc(Nc3cc(C)[nH]n3)cc3nccc(OC)c13)C2 [Example 7-2] | – | – | – | – | 0.1 to 1 nM | 0.1 to 1 nM | < 31.6 nM | < 31.6 nM | – | – | –
21 | COc1ccnc2cc(Nc3cc(C)[nH]n3)nc(N[C@@H]3C[C@H]4CC[C@@H](C3)N4CCC#N)c12 [Example 7-6] | B (B represents a pKi value between 9 and 10 (Ki between 1 nM and 0.1 nM)) | B (B represents a pKi value between 9 and 10 (Ki between 1 nM and 0.1 nM)) | – | – | – | – | – | – | A (A represents a pEC50 value≥7.5 (EC50≤32 nM)) | B (B represents a pEC50 value between 6.7 and 7.5 (EC50 between 200 nM and 32 nM)) | –
22 | COc1ccnc2cc(Nc3cc(C)[nH]n3)nc(N[C@@H]3C[C@H]4CC[C@@H](C3)N4CC(F)(F)F)c12 [Example 7-9] | – | – | – | – | – | 0.1 to 1 nM | < 31.6 nM | < 31.6 nM | – | – | 0.1 to 1 nM
23 | Cc1cc(Nc2nc(N[C@@H]3C[C@H]4CC[C@@H](C3)N4Cc3ccncc3)c3cccnc3c2F)n[nH]1 [Example 8-6] | B (B represents a pKi value between 9 and 10 (Ki between 1 nM and 0.1 nM)) | B (B represents a pKi value between 9 and 10 (Ki between 1 nM and 0.1 nM)) | – | – | – | – | – | – | B (B represents a pEC50 value between 6.7 and 7.5 (EC50 between 200 nM and 32 nM)) | B (B represents a pEC50 value between 6.7 and 7.5 (EC50 between 200 nM and 32 nM)) | –
24 | Cc1cc(Nc2nc(N[C@@H]3C[C@H]4CCC[C@@H](C3)N4S(C)(=O)=O)c3cccnc3c2F)n[nH]1 [Example 8-10] | A (A represents a pKi value≥10 (Ki≤0.1 nM)) | A (A represents a pKi value≥10 (Ki≤0.1 nM)) | – | – | – | – | – | – | A (A represents a pEC50 value≥7.5 (EC50≤32 nM)) | A (A represents a pEC50 value≥7.5 (EC50≤32 nM)) | –
